Measurements: US8748484B2, “Organometallic anti-cancer complexes” (Research Foundation of The City University of New York, priority 2011, dated 2014)

Key:
Assay in all cases: Antiproliferative activity, viable cell count (trypan blue) after 96 hours
Assay type in all cases: cell-based, human
K562 = settings: for IC50: K562, CML, 96 hours, 50% growth inhibition vs DMSO, Compound 4 values above 25 μM are estimates from the plot 1-25 μM
Method: (§1) The antiproliferative activity of compounds 1-4 was determined in the seven types of human cancer cell lines K562 (Chronic Myelogenous Leukemia, CML), HT-29 (colon), and HL-60 (Acute Myloid Leukemia, AML), DU-145 (prostate), MCF-7 (breast), and GRANTA-519 (Mantle Cell Leukemia, MCL), and NSCL (non small cell lung carcinoma) and compared with cisplatin.
(§2) Human cancer cells were plated in twelve-well dishes at a cell density of 2.5×10^4 cells/ml/well. The cells were treated, in duplicate, 24 hours later with increasing concentrations of each compound or cisplatin from Sigma (Table 3). The total number of viable cells was determined after 96 hours later by cell counting by hemacytometer and trypan blue staining. The percentage of viable cells remaining was calculated as follows: number of viable cells (compound treated)/number of viable cells (DMSO treated)*100. Compound 1 dose response assay plot (FIG. 3) is the average percent viable cells of the treated compared to the vehicle (DMSO) treated cells. DU-145, MCF-7, HT-29, H460 cells were grown in DMEM and K562, HL-60, Granata-519 cells were grown in RPMI medium both supplemented with 10% FBS (cell Generation) and 1 unit penicillin. Cells were routinely grown and treated at 37° C. under 90% humidity. The IC50 (50% growth inhibition as compared to DMSO treated control) values in micromoles were determined by extrapolation from the dose response curves. Dose response curves were generated by plotting the percentage of cells at each concentration versus concentration tested. Compound 1 was chosen to produce more detailed growth curves based on overall highest activity profile. Similarly, cells were treated at increasing concentrations of cisplatin and detailed growth curves were generated (FIG. 4). Thus the activity of compound 1 was compared to cisplatin.

GRANTA-519 = settings: for IC50: GRANTA-519, MCL, 96 hours, 50% growth inhibition vs DMSO
Method: as §1, §2

MCF-7 = settings: for IC50: MCF-7, Breast, 96 hours, 50% growth inhibition vs DMSO, Compound 4 values above 25 μM are estimates from the plot 1-25 μM
Method: as §1, §2

HT-29 = settings: for IC50: HT-29, Colon, 96 hours, 50% growth inhibition vs DMSO, Compound 4 values above 25 μM are estimates from the plot 1-25 μM
Method: as §1, §2

H460 = settings: for IC50: H460, NSCLC, 96 hours, 50% growth inhibition vs DMSO, Compound 4 values above 25 μM are estimates from the plot 1-25 μM
Method: as §1, §2

DU145 = settings: for IC50: DU145, Prostate, 96 hours, 50% growth inhibition vs DMSO
Method: as §1, §2

HL-60 = settings: for IC50: HL-60, AML, 96 hours, 50% growth inhibition vs DMSO
Method: as §1, §2

N.N.[Cl][Pt][Cl] [Cisplatin, reference compound]
IC50 (K562): 1.5 µM | IC50 (GRANTA-519): 0.25 µM | IC50 (MCF-7): 1.5 µM | IC50 (HT-29): 3 µM | IC50 (H460): 0.75 µM | IC50 (DU145): 1 µM | IC50 (HL-60): 0.75 µM

CC1=C2[O][Ru-]3(=[C]=O)(=[C]=O)([O+]=C2C=CO1)[Ru](=[C]=O)(=[C]=O)(=[C]=O)(=[C]=O)[Ru-]31(=[C]=O)(=[C]=O)[O]C2=C(C)OC=CC2=[O+]1 [Cmpd 1, [Ru3(CO)8(C12H10O6)]]
IC50 (K562): 0.3 µM | anticancer activity relative to cisplatin (K562; K562, times higher than cisplatin): 5-7 times | IC50 (GRANTA-519): 0.075 µM | anticancer activity relative to cisplatin (GRANTA-519; GRANTA-519, times more potent than cisplatin): 2-3 times | IC50 (MCF-7): 0.4 µM | anticancer activity relative to cisplatin (MCF-7; MCF-7, times more potent than cisplatin): 2-3 times | IC50 (HT-29): 0.5 µM | anticancer activity relative to cisplatin (HT-29; HT-29, times higher than cisplatin): 5-7 times | IC50 (H460): 0.75 µM | anticancer activity relative to cisplatin (H460; NSCL (non small cell lung carcinoma)): the same as cisplatin | IC50 (DU145): 0.5 µM | anticancer activity relative to cisplatin (DU145; DU-145, times more potent than cisplatin): 2-3 times | IC50 (HL-60): 0.1 µM | anticancer activity relative to cisplatin (HL-60; HL-60, times higher than cisplatin): 5-7 times

CC1=C2[O][Ru-]3(=[C]=O)(=[C]=O)([O+]=C2C=CO1)[Ru](=[C]=O)(=[C]=O)(=[C]=O)([P](c1ccccc1)(c1ccccc1)c1ccccc1)[Ru-]31(=[C]=O)(=[C]=O)[O]C2=C(C)OC=CC2=[O+]1 [Cmpd 2, [Ru3(CO)7(C12H10O6)(PPh3)]]
IC50 (K562): 2.5 µM | IC50 (MCF-7): 2.5 µM | IC50 (HT-29): 5 µM | IC50 (H460): 5 µM | IC50 (DU145): 2.5 µM | IC50 (HL-60): 0.75 µM

[Ru3(CO)6(C12H10O6)(dppe)] [Cmpd 4]
IC50 (DU145): 10 µM

[Ru3(CO)6(C12H10O6)(dppm)] [Cmpd 3]
IC50 (K562): 30 µM | IC50 (MCF-7): 75 µM | IC50 (HT-29): > 100 µM | IC50 (H460): 70 µM | IC50 (DU145): 25 µM | IC50 (HL-60): 25 µM
